Experimental data: ChEMBL document CHEMBL1201861, “Genomics of Drug Sensitity in Cancer screening data, Wellcome Trust Sanger Institute”

Columns and labels:
Assay in all cases: cells
[1] = test system: GMS-10; type: functional, cell-based, Homo sapiens; settings: Homo sapiens, GMS-10;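 further: growth inhibition of GMS-10 cells, read out as cell viability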
Description: SANGER: Inhibition of human GMS-10 cell growth in a cell viability assay.

[2] = test system: GP5d; type: functional, cell-based, Homo sapiens; settings: Homo sapiens, GP5d;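 further: growth inhibition of human GP5d cells, read out with a cell viability assay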
Description: SANGER: Inhibition of human GP5d cell growth in a cell viability assay.

[3] = test system: NCI-H1155; type: functional, cell-based; settings: Homo sapiens;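 further: cell growth inhibition measured by a viability assay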
Description: SANGER: Inhibition of human NCI-H1155 cell growth in a cell viability assay.

[4] = test system: A673; type: functional, cell-based, Homo sapiens; settings: Homo sapiens, A673;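 further: growth inhibition of human A673 cells, read out through a cell viability assay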
Description: SANGER: Inhibition of human A673 cell growth in a cell viability assay.

[5] = test system: CAL-33; type: functional, cell-based, Homo sapiens; settings: Homo sapiens, CAL-33;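 further: growth inhibition of CAL-33 cells, read out with a cell viability assay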
Description: SANGER: Inhibition of human CAL-33 cell growth in a cell viability assay.

[6] = test system: HuO-3N1; type: functional, cell-based, Homo sapiens; settings: Homo sapiens, HuO-3N1;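 further: cell viability readout used to measure how strongly compounds suppress proliferation of human HuO-3N1 cells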
Description: SANGER: Inhibition of human HuO-3N1 cell growth in a cell viability assay.

[7] = test system: DSH1; type: functional, cell-based, Homo sapiens; settings: Homo sapiens, DSH1;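 further: growth inhibition of human DSH1 cells, measured with a cell viability readout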
Description: SANGER: Inhibition of human DSH1 cell growth in a cell viability assay.

[8] = test system: COLO-800; type: functional, cell-based, Homo sapiens; settings: Homo sapiens, COLO-800;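 further: growth inhibition of COLO-800 cells, read out with a cell viability assay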
Description: SANGER: Inhibition of human COLO-800 cell growth in a cell viability assay.

[9] = test system: KYSE-450; type: functional, cell-based; settings: Homo sapiens;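 further: cell growth inhibition measured by a viability assay in human KYSE-450 cells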
Description: SANGER: Inhibition of human KYSE-450 cell growth in a cell viability assay.

[10] = test system: SK-N-DZ; type: functional, cell-based, Homo sapiens; settings: Homo sapiens, SK-N-DZ;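 further: growth inhibition of the cancer cell line, read out through a viability assay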
Description: SANGER: Inhibition of human SK-N-DZ cell growth in a cell viability assay.

[11] = test system: TE-12; type: functional, cell-based; settings: Homo sapiens;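 further: growth inhibition of TE-12 cells, read out by a cell viability assay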
Description: SANGER: Inhibition of human TE-12 cell growth in a cell viability assay.

[12] = test system: MOLT-4; type: functional, cell-based; settings: Homo sapiens;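 further: growth inhibition of MOLT-4 cells, determined with a cell viability readout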
Description: SANGER: Inhibition of human MOLT-4 cell growth in a cell viability assay.

[13] = test system: KYSE-410; type: functional, cell-based, Homo sapiens; settings: Homo sapiens, KYSE-410;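 further: growth inhibition of KYSE-410 cells, measured through a cell viability readout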
Description: SANGER: Inhibition of human KYSE-410 cell growth in a cell viability assay.

[14] = test system: MFM-223; type: functional, cell-based, Homo sapiens; settings: Homo sapiens, MFM-223
Description: SANGER: Inhibition of human MFM-223 cell growth in a cell viability assay.

[15] = test system: A498; type: functional, cell-based, Homo sapiens; settings: Homo sapiens, A498;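 further: growth inhibition of human A498 cells, read out with a cell viability assay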
Description: SANGER: Inhibition of human A498 cell growth in a cell viability assay.

[16] = test system: Ca-Ski; type: functional, cell-based; settings: Homo sapiens;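 further: cell viability assay measuring inhibition of Ca-Ski cell growth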
Description: SANGER: Inhibition of human Ca-Ski cell growth in a cell viability assay.

[17] = test system: BCPAP; type: functional, cell-based, Homo sapiens; settings: Homo sapiens, BCPAP;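 further: growth inhibition of BCPAP cells, read out in a cell viability assay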
Description: SANGER: Inhibition of human BCPAP cell growth in a cell viability assay.

[18] = test system: MZ7-mel; type: functional, cell-based, Homo sapiens; settings: Homo sapiens, MZ7-mel;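 further: growth inhibition of human MZ7-mel cells, measured by a cell viability assay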
Description: SANGER: Inhibition of human MZ7-mel cell growth in a cell viability assay.

[19] = test system: ASPC1; type: functional, cell-based, Homo sapiens; settings: Homo sapiens, ASPC1;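 further: growth inhibition of AsPC-1 cells, read out with a cell viability assay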
Description: SANGER: Inhibition of human AsPC-1 cell growth in a cell viability assay.

[20] = test system: EC-GI-10; type: functional, cell-based, Homo sapiens; settings: Homo sapiens, EC-GI-10
Description: SANGER: Inhibition of human EC-GI-10 cell growth in a cell viability assay.

[21] = test system: HEL; type: functional, cell-based, Homo sapiens; settings: Homo sapiens, HEL;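 further: growth inhibition of HEL cells, read out with a cell viability assay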
Description: SANGER: Inhibition of human HEL cell growth in a cell viability assay.

[22] = test system: NB5; type: functional, cell-based, Homo sapiens; settings: Homo sapiens, NB5;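 further: growth inhibition of NB5 cells, read out as cell viability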
Description: SANGER: Inhibition of human NB5 cell growth in a cell viability assay.

[23] = test system: SK-MEL3; type: functional, cell-based, Homo sapiens, SK-MEL-3; settings: Homo sapiens, SK-MEL3;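 further: growth inhibition of human SK-MEL-3 cells, read out with a cell viability assay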
Description: SANGER: Inhibition of human SK-MEL-3 cell growth in a cell viability assay.

[24] = test system: VMRC-RCZ; type: functional, cell-based; settings: Homo sapiens;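 further: growth inhibition measured with a cell viability assay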
Description: SANGER: Inhibition of human VMRC-RCZ cell growth in a cell viability assay.

[25] = test system: HDLM-2; type: functional, cell-based; settings: Homo sapiens;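 further: cell viability assay measuring suppression of HDLM-2 proliferation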
Description: SANGER: Inhibition of human HDLM-2 cell growth in a cell viability assay.

[26] = test system: NCI-H1437; type: functional, cell-based, Homo sapiens; settings: Homo sapiens, NCI-H1437;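 further: growth inhibition of human NCI-H1437 cells, read out by a cell viability assay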
Description: SANGER: Inhibition of human NCI-H1437 cell growth in a cell viability assay.

[27] = test system: M059J; type: functional, cell-based, Homo sapiens; settings: Homo sapiens, M059J;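 further: growth inhibition of M059J cells, read out with a cell viability assay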
Description: SANGER: Inhibition of human M059J cell growth in a cell viability assay.

[28] = test system: 697; type: functional, cell-based; settings: Homo sapiens
Description: SANGER: Inhibition of human 697 cell growth in a cell viability assay.

[29] = test system: CAL-39; type: functional, cell-based, Homo sapiens; settings: Homo sapiens, CAL-39;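 further: cell viability assay measuring growth inhibition of CAL-39 cells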
Description: SANGER: Inhibition of human CAL-39 cell growth in a cell viability assay.

[30] = test system: NCI-H1648; type: functional, cell-based, Homo sapiens; settings: Homo sapiens, NCI-H1648;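 further: cell viability assay measuring inhibition of NCI-H1648 cell growth, from the Sanger screening data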
Description: SANGER: Inhibition of human NCI-H1648 cell growth in a cell viability assay.

[31] = test system: EW-18; type: functional, cell-based; settings: Homo sapiens;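 further: growth inhibition of EW-18 cells, read out by a cell viability assay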
Description: SANGER: Inhibition of human EW-18 cell growth in a cell viability assay.

[32] = test system: H4; type: functional, cell-based; settings: Homo sapiens
Description: SANGER: Inhibition of human H4 cell growth in a cell viability assay.

[33] = test system: GOTO; type: functional, cell-based, Homo sapiens; settings: Homo sapiens, GOTO;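 further: growth inhibition of GOTO cells, read out by a cell viability assay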
Description: SANGER: Inhibition of human GOTO cell growth in a cell viability assay.

[34] = test system: BHY; type: functional, cell-based, Homo sapiens; settings: Homo sapiens, BHY;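 further: cell growth inhibition read out by a viability assay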
Description: SANGER: Inhibition of human BHY cell growth in a cell viability assay.

[35] = test system: NCI-H1792; type: functional, cell-based, Homo sapiens; settings: Homo sapiens, NCI-H1792;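 further: growth inhibition of human NCI-H1792 cells, read out as cell viability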
Description: SANGER: Inhibition of human NCI-H1792 cell growth in a cell viability assay.

[36] = test system: NCI-H82; type: functional, cell-based; settings: Homo sapiens;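 further: growth inhibition of NCI-H82 cells, measured with a cell viability readout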
Description: SANGER: Inhibition of human NCI-H82 cell growth in a cell viability assay.

[37] = test system: MHH-PREB-1; type: functional, cell-based; settings: Homo sapiens;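 further: cell viability assay measuring inhibition of proliferation of human MHH-PREB-1 cells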
Description: SANGER: Inhibition of human MHH-PREB-1 cell growth in a cell viability assay.

[38] = test system: HCC1806; type: functional, cell-based, Homo sapiens; settings: Homo sapiens, HCC1806;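 further: growth inhibition of the cancer cell line, determined with a cell viability assay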
Description: SANGER: Inhibition of human HCC1806 cell growth in a cell viability assay.

[39] = test system: HAL-01; type: functional, cell-based; settings: Homo sapiens;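 further: growth inhibition of human HAL-01 cells, read out with a cell viability assay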
Description: SANGER: Inhibition of human HAL-01 cell growth in a cell viability assay.

[40] = test system: MDA-MB-175-VII; type: functional, cell-based, Homo sapiens; settings: Homo sapiens, MDA-MB-175-VII
[41] = test system: GI-ME-N; type: functional, cell-based, Homo sapiens; settings: Homo sapiens, GI-ME-N;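 further: growth inhibition of human GI-ME-N cells, read out with a cell viability assay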
Description: SANGER: Inhibition of human GI-ME-N cell growth in a cell viability assay.

[42] = test system: SW756; type: functional, cell-based, Homo sapiens; settings: Homo sapiens, SW756;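 further: growth inhibition of human SW756 cells, read out with a cell viability assay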
Description: SANGER: Inhibition of human SW756 cell growth in a cell viability assay.

[43] = test system: CCRF-CEM; type: functional, cell-based; settings: Homo sapiens;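 further: inhibition of CCRF-CEM cell growth, measured by a cell viability assay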
Description: SANGER: Inhibition of human CCRF-CEM cell growth in a cell viability assay.

[44] = test system: CAL-54; type: functional, cell-based, Homo sapiens; settings: Homo sapiens, CAL-54;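 further: growth inhibition of CAL-54 cells, read out by a viability measurement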
Description: SANGER: Inhibition of human CAL-54 cell growth in a cell viability assay.

[45] = test system: NCI-H1651; type: functional, cell-based, Homo sapiens; settings: Homo sapiens, NCI-H1651;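 further: Read-out is a cell viability assay, with IC50 expressing inhibition of NCI-H1651 cell growth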
Description: SANGER: Inhibition of human NCI-H1651 cell growth in a cell viability assay.

[46] = test system: LCLC-97TM1; type: functional, cell-based, Homo sapiens; settings: Homo sapiens, LCLC-97TM1;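 further: cell viability assay measuring growth inhibition of human LCLC-97TM1 cells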
Description: SANGER: Inhibition of human LCLC-97TM1 cell growth in a cell viability assay.

[47] = test system: TE-1; type: functional, cell-based, Homo sapiens; settings: Homo sapiens, TE-1;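 further: growth inhibition of the human TE-1 cell line, read out with a cell viability assay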
Description: SANGER: Inhibition of human TE-1 cell growth in a cell viability assay.

[48] = test system: MCF7; type: functional, cell-based, Homo sapiens; settings: Homo sapiens, MCF7;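 further: growth inhibition of human MCF7 cells, read out with a cell viability assay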
Description: SANGER: Inhibition of human MCF7 cell growth in a cell viability assay.

[49] = test system: ES3; type: functional, cell-based, Homo sapiens; settings: Homo sapiens, ES3;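 further: growth inhibition of ES3 cells, read out with a cell viability assay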
Description: SANGER: Inhibition of human ES3 cell growth in a cell viability assay.

[50] = test system: NMC-G1; type: functional, cell-based, Homo sapiens; settings: Homo sapiens, NMC-G1;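 further: growth inhibition of the NMC-G1 cell line, measured with a cell viability read-out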
Description: SANGER: Inhibition of human NMC-G1 cell growth in a cell viability assay.

[51] = test system: ONS-76; type: functional, cell-based, Homo sapiens; settings: Homo sapiens, ONS-76;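 further: growth inhibition of human ONS-76 cells, read out with a cell viability assay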
Description: SANGER: Inhibition of human ONS-76 cell growth in a cell viability assay.

[52] = test system: SK-MEL-2; type: functional, cell-based, Homo sapiens; settings: Homo sapiens, SK-MEL-2;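 further: growth inhibition of human SK-MEL-2 cells measured with a cell viability assay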
Description: SANGER: Inhibition of human SK-MEL-2 cell growth in a cell viability assay.

`Cc1cnc(-c2cnc(NCCNc3ccc(C#N)cn3)nc2-c2ccc(Cl)cc2Cl)[nH]1` [LADUVIGLUSIB] gave an IC50 [1] of over 2560 nM, an IC50 [2] of over 2560 nM and an IC50 [3] of over 2560 nM. The IC50 [4] was over 2560 nM, the IC50 [5] was over 2560 nM and the IC50 [6] was over 2560 nM. The IC50 [7] was over 2560 nM, the IC50 [8] was over 2560 nM and the IC50 [9] was over 2560 nM. It also gave an IC50 [10] of over 2560 nM, an IC50 [11] of over 2560 nM and an IC50 [12] of over 2560 nM. For the same compound, the IC50 [13] was over 2560 nM, the IC50 [14] was over 2560 nM and the IC50 [15] was 1300 nM. The IC50 [16] was over 2560 nM, the IC50 [17] was 1670 nM and the IC50 [18] was over 2560 nM. It also gave an IC50 [19] of over 2560 nM, an IC50 [20] of over 2560 nM and an IC50 [21] of over 2560 nM. It also gave an IC50 [22] of over 2560 nM, an IC50 [23] of over 2560 nM and an IC50 [24] of over 2560 nM. The IC50 [25] was over 2560 nM, the IC50 [26] was over 2560 nM and the IC50 [27] was over 2560 nM. The IC50 [28] was over 2560 nM, the IC50 [29] was over 2560 nM and the IC50 [30] was over 2560 nM. For the same compound, the IC50 [31] was over 2560 nM, the IC50 [32] was over 2560 nM and the IC50 [33] was over 2560 nM. It also gave an IC50 [34] of over 2560 nM, an IC50 [35] of over 2560 nM and an IC50 [36] of over 2560 nM. It also gave an IC50 [37] of over 2560 nM, an IC50 [38] of over 2560 nM and an IC50 [39] of over 2560 nM. For the same compound, the IC50 [40] was over 2560 nM, the IC50 [41] was over 2560 nM and the IC50 [42] was over 2560 nM. The IC50 [43] was over 2560 nM, the IC50 [44] was over 2560 nM and the IC50 [45] was over 2560 nM. For the same compound, the IC50 [46] was over 2560 nM, the IC50 [47] was over 2560 nM and the IC50 [48] was over 2560 nM. For the same compound, the IC50 [49] was over 2560 nM, the IC50 [50] was over 2560 nM and the IC50 [51] was over 2560 nM. It also gave an IC50 [52] of over 2560 nM.
`C[C@]1(O)C[C@@H](c2nc(-c3ccc4ccc(-c5ccccc5)nc4c3)c3c(N)nccn32)C1` [LINSITINIB] showed an IC50 [1] of over 2560 nM, an IC50 [2] of over 2560 nM and an IC50 [3] of over 2560 nM. It also gave an IC50 [4] of over 2560 nM, an IC50 [5] of over 2560 nM and an IC50 [6] of over 2560 nM. For the same compound, the IC50 [7] was over 2560 nM, the IC50 [8] was over 2560 nM and the IC50 [9] was over 2560 nM. For the same compound, the IC50 [10] was 237 nM, the IC50 [11] was 765 nM and the IC50 [12] was over 2560 nM. It also gave an IC50 [13] of over 2560 nM, an IC50 [14] of over 2560 nM and an IC50 [15] of over 2560 nM. The IC50 [16] was over 2560 nM, the IC50 [17] was over 2560 nM and the IC50 [18] was over 2560 nM. It also gave an IC50 [19] of over 2560 nM, an IC50 [20] of over 2560 nM and an IC50 [21] of over 2560 nM. The IC50 [22] was over 2560 nM, the IC50 [23] was 1490 nM and the IC50 [24] was over 2560 nM. For the same compound, the IC50 [25] was over 2560 nM, the IC50 [26] was over 2560 nM and the IC50 [27] was over 2560 nM. It also gave an IC50 [28] of over 2560 nM, an IC50 [29] of over 2560 nM and an IC50 [30] of over 2560 nM. The IC50 [31] was 270 nM, the IC50 [32] was over 2560 nM and the IC50 [33] was over 2560 nM. The IC50 [34] was over 2560 nM, the IC50 [35] was over 2560 nM and the IC50 [36] was over 2560 nM. It also gave an IC50 [37] of over 2560 nM, an IC50 [38] of over 2560 nM and an IC50 [39] of over 2560 nM. The IC50 [40] was over 2560 nM, the IC50 [41] was over 2560 nM and the IC50 [42] was over 2560 nM. For the same compound, the IC50 [43] was over 2560 nM, the IC50 [44] was over 2560 nM and the IC50 [45] was over 2560 nM. It also gave an IC50 [46] of 210 nM, an IC50 [47] of 1710 nM and an IC50 [48] of over 2560 nM. It also gave an IC50 [49] of 1120 nM, an IC50 [50] of over 2560 nM and an IC50 [51] of over 2560 nM. The IC50 [52] was over 2560 nM.
